In general, IC50 refers to the concentration that inhibits the measured activity by half. For orientation: inhibition means the change of the read-out against control, counted positive when it falls.

Like-named read-outs stand apart in the source and are kept apart here.

Consider five molecules from patent US7009053B2, “Quinoline derivatives as caspase-3 inhibitor, preparation for producing the same and pharmaceutical composition comprising the same” (Yungjin Pharmaceuticals Co., Ltd., priority 2002, dated 2006).

Format in all cases: biochemical
In assay [1] the target is T1, Caspase-1 (Homo sapiens, UniProt P29466).
T1 construct: purchased BIOMOL Research Laboratories Inc; host or cells: E. coli
T1 sequence (P29466 120-297 limits assumed): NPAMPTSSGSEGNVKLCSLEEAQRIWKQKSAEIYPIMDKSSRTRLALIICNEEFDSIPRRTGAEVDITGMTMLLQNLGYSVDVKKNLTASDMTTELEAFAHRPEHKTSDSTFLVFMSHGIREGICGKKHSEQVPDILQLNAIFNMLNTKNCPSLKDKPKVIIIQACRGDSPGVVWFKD
T1 sequence (P29466 317-404 limits assumed): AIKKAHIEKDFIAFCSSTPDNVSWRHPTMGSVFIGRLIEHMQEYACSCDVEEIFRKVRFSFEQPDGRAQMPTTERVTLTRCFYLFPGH
Kind of assay: Assay of selective inhibitory activity, caspase-1. The conditions noted are these: read-out: IC50 against caspase-1. How it is done:
(§1) To investigate the selectivity on caspase enzyme subtypes, the inhibitory effects of the compounds of this invention on several other members of the caspase family, caspase-1, 6, 7 and 8 were evaluated.
(§2) After 1 hr incubation at 37° C., the release of AFC (7-amino-4-trifluoromethyl-coumarin) was monitored in a fluorometric plate reader (Victor 1420). The excitation and emission wavelengths were 400 nm and 510 nm, respectively. Isotherms from three assays were calculated by computerized nonlinear regression analysis (GraphPad Prism Program, San Diego, Calif.) to yield IC50 values. Caspase-1, 6, 7 and 8 were purchased from BIOMOL Research Laboratories Inc. (Plymouth Meeting, Pa., USA).
(§3) Coumarin-based fluorogenic substrates for each enzyme were obtained from Sigma/RBI (St. Louis, Mo., USA). The compound used in the assay was 8-amino-4-(3-morpholine-4-yl-propylamino)-quinoline-3-carboxylic acid ethyl ester. The enzymatic activity of caspase-1, 6, 7 or 8 was determined by the same procedures as for the caspase-3 assay, except for enzyme or substrate (Table 2).

Assay [2] deals with T2, human recombinant caspase-3 enzyme (Homo sapiens, UniProt P42574).
T2 construct: each cDNA encoding p12 and p17 subunits of caspase-3 was PCR-amplified respectively and subcloned into a pET3-a expression vector; made in house; host or cells: E. coli BL21 (DE3), pET3-a vector
T2 sequence (P42574 29-175 limits assumed): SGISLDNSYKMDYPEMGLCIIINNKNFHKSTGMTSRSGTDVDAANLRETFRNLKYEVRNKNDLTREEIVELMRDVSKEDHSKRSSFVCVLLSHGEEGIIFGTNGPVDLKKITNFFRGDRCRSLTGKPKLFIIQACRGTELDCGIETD
T2 sequence (P42574 176-277 limits assumed): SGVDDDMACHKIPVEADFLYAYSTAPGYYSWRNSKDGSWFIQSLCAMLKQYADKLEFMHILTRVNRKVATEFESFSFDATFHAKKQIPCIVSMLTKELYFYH
Kind of assay: Enzyme assay of caspase-3 inhibition (fluorogenic Ac-DEVD-AFC substrate). The conditions noted are these: for inhibition at 20 µM: caspase-3 activity. How it is done:
The active form of human recombinant caspase-3 enzyme was prepared from Escherichia coli (E.coli) heterologous expression system as described previously (Rotonda J. et al., Nat Struct Biol 3(7): 617–25, 1996). Briefly, each cDNA encoding p12 and p17 subunits of caspase-3 was PCR-amplified respectively and subcloned into a pET3-a expression vector (Novagen), which was followed by transfection into E. coli strain BL21 (DE3). The bacterial cultures (0.5 liters for each transfectant) were grown at 37° C. until logarithmic phase of cell growth and isopropyl-1-thio-β-D-galactopyranoside (IPTC) (Pharmacia) was then added to a final concentration of 0.5 mM. After 3 hr of incubation, the bacteria were pelleted and lysed in a lysis buffer (20 mM Tris hydrochloride pH 8.0, 1 mM EDTA, 2 mM dithiothreitol (DTT), 100 mM NaCl, 200 ug/ml of lysozyme) through sonication. After centrifugation, the pellets from each transfectants were dissolved in 6 M urea and were mixed and rapidly diluted 50 fold in 100 mM HEPES/KOH (pH 7.5), 10% sucrose, 0.1% CHAPS, 0.5 M NaCl, 10 mM DTT. The concentration of protein was determined with the Bradford method (Bio-Rad), with bovine serum albumin as the standard. To verify whether expected size of proteins were obtained, the cell lysates from each cDNA transfectants were analyzed on 14% SDS PAGE and visualized with Coomassie blue staining.
200 ul of the following assay solution was contained in each well of 96-well plate: 20 mM HEPES/KOH (pH 7.5), 10% sucrose, 10 mM DTT, 0.2 mM EDTA, 0.1% CHAPS, 200 ng of enzymes, and 2.5 uM of the substrate. The fluorogenic substrate […]-Asp-Glu-Val-Asp-7-amino-4-trifluoromethylcoumarin (Ac-DEVD-AFC) was purchased from Sigma (St Louis, Mo.) and dissolved in DMSO as a 2.5 mM stock solution and kept at −20° C. before use.
After 1 hr incubation at 37° C., the release of AFC (7-amino-4-trifluoromethyl-coumarin) was monitored in a fluorometric plate reader (Victor 1420). The excitation and emission wavelengths were 400 nm and 510 nm, respectively. The inhibitory effects of compounds on enzyme activities were determined with 2, 20 or 200 uM concentrations of the test compound run in triplicate tubes, and isotherms from three assays were calculated by computerized nonlinear regression analysis (GraphPad Prism Program, San Diego, Calif.) to yield IC50 values.

Assay [3] concerns the target T3, Caspase-7 (Homo sapiens, UniProt P55210).
T3 construct: purchased BIOMOL Research Laboratories Inc; host or cells: E. coli
T3 sequence (P55210 24-198 limits assumed): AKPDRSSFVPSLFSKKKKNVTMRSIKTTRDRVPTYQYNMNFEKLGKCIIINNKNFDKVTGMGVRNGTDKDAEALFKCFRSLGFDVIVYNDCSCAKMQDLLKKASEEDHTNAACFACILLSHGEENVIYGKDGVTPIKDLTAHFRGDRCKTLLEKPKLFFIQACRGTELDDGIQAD
T3 sequence (P55210 207-303 limits assumed): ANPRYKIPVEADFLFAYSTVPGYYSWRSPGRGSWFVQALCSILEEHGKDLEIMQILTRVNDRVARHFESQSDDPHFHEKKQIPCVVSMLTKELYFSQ
Kind of assay: Assay of selective inhibitory activity, caspase-7. Particulars: read-out: IC50 against caspase-7. How it is done: as §1, §2, §3

In assay [4] the target is T4, Caspase-8 (Homo sapiens, UniProt Q14790).
T4 construct: purchased BIOMOL Research Laboratories Inc; host or cells: E. coli
Description: Assay of selective inhibitory activity, caspase-8. The conditions noted are these: read-out: IC50 against caspase-8. Here is the method:
as §1, §2, §3

In assay [5] the target is T5, Caspase-6 (Homo sapiens, UniProt P55212).
T5 construct: purchased BIOMOL Research Laboratories Inc; host or cells: E. coli
T5 sequence (P55212 24-179 limits assumed): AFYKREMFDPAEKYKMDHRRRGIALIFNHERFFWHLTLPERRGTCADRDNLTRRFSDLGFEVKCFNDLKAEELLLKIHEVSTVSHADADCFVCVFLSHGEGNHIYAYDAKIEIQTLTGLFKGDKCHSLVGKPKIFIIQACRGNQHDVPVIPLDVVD
T5 sequence (P55212 194-293 limits assumed): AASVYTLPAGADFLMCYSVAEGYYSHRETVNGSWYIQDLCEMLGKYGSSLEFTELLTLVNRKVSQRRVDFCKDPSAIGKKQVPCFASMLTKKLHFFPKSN
Description: Assay of selective inhibitory activity, caspase-6. Particulars: read-out: IC50 against caspase-6. How it is done:
as §1, §2, §3

Where [6] appears, read: caspase-3, Table 1, tested at 2, 20 or 200 uM, read-out: IC50.

T4 sequence (Q14790 217-374 limits assumed): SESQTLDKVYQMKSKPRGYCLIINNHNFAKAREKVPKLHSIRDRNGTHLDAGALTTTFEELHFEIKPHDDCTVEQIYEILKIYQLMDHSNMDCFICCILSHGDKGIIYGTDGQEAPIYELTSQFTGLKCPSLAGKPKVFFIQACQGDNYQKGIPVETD
T4 sequence (Q14790 385-479 limits assumed): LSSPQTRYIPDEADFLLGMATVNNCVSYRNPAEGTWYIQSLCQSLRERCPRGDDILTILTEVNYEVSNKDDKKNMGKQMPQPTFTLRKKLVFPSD

Take `CCOC(=O)c1cnc2c(N)cccc2c1NCCCN1CCOCC1` [Example 22, 8-Amino-4-(3-morpholin-4-yl-propylamino)-quinoline-3-carboxylic acid ethyl ester]: the IC50 in assay [1] was not below 200 µM; in assay [2] (setting [6]), 13.8 µM; in assay [2] (selectivity study, text b424, read-out: IC50 against caspase-3), 5.6 µM; in assay [3], 14.7 µM; in assay [4], not below 200 µM; in assay [5], not below 200 µM. In addition, the inhibition at 20 µM in assay [2] was determined as 92.3%. The “inhibitory activity against caspase-3 (in words)” value in assay [2] (compared to the reference compound) is given as “superior activity”.
Take `CCOC(=O)c1cnc2c(N)cccc2c1NCc1cc(OC)cc(OC)c1` [Example 47, 8-Amino-4-(3,5-dimethoxy-benzylamino)-quinoline-3-carboxylic acid ethyl ester]: in assay [2] (setting [6]), the IC50 was 21.2 µM. Besides, in assay [2], the inhibition at 20 µM was determined as 69.3%.
The corresponding values for `CCOC(=O)c1cnc2c(N)cccc2c1NCCc1ccccc1` [Example 38, 8-Amino-4-phenethylamino-quinoline-3-carboxylic acid ethyl ester] are 16.6 µM and 77.2%.
The corresponding values for `CCCCNc1c(C(=O)OCC)cnc2c(N)cccc12` [Example 26, 8-Amino-4-butylamino-quinoline-3-carboxylic acid ethyl ester] are 15.4 µM and 88.9%.
The corresponding values for `CCOC(=O)c1cnc2c(N)cccc2c1NCc1cccc2ccccc12` [Example 19, 8-Amino-4-[(naphthalen-1-ylmethyl)-amino]-quinoline-3-carboxylic acid ethyl ester] are 14.9 µM and 84.9%.
